Reference: patent US7169750B2, “Methods to mobilize progenitor/stem cells” (Anormed, Inc., priority 2001, dated 2007)
Like-named read-outs stand apart in the source and are kept apart here.

Legend:
[1] = test system: circulating CD34+ progenitor/stem cells; conditions: single dose of 80 μg/kg; 6 hour time point; Phase 1 study (Liles, et al.); cited from earlier work
[2] = test system: progenitor cells; conditions: AMD3100 5 mg/Kg s.c. + MIP-1α 5 μg I.V., 11 hours after rhu G-CSF or saline, 1 hour prior to assessing the blood
Protocol: Groups of mice were randomized to receive control diluent (saline) or G-CSF at a dose of 2.5 μg per mouse, twice a day, for two days via s.c. injection. […] One hour later, the mice were sacrificed and the number of progenitor cells per mL of blood were measured.

[3] = test system: rats with ligated left coronary artery; conditions: administered within hours after induction of cardiac ischemia, with or without rhG-CSF
Protocol: Adult rats are anesthetized and a thoracotomy is performed. The descending branch of the left coronary artery is ligated and not reperfused. […] Control rats are not treated with the reagents. The animals are monitored at one-week intervals by echocardiography and MRI. The experiment is terminated at 2, 6 to 12 weeks post-surgery. On the day of sacrifice, the hemodynamic functions are analyzed for left ventricle-end diastolic pressure, left ventricle-developed pressure and the rate of rise and fall of left ventricle pressure. The heart is then arrested in diastole and perfuised via the abdominal aorta to flush residual blood from the vascular network of the myocardium. This is followed by perfusion of the heart with 10% formalin. Several slices are made through the fixed heart and these are embedded in paraffin and sections. The sections are stained and analyzed by light microscopy to determine the size of the infarct in the treated and control animals. Tissue sections from hearts taken at 2 weeks after surgery are stained with antibodies specific for immature, developing myocyte and blood vessel proteins and analyzed by confocal microscopy. The immunohistochemical analysis involves the identification of transcription factors and surface markers expressed in early stages of myocyte development.

[4] = test system: nucleated cells; conditions: T = 3 h; average of 5 donors; 80 μg/kg s.c.
[5] = test system: progenitors in DNA synthesis (S) phase; conditions: prior to and 1, 3, 6, 9 and 24 hours after injection
Protocol: For the progenitor cell numbers and cycling status, the numbers of CFU-GM, BFU-E and CFU-GEMM in methylcellulose cultures by stimulation of the cells with 1 Unit (U)/ml recombinant human (rhu) erythropoietin, 100 U/ml rhu granulocyte-macrophage colony stimulating factor (GM-CSF), 100 U/ml rhu interleukin-3 (IL-3) and 50 ng/ml rhu steel factor (SLF=stem cell factor (SCF)). […] For both types of assays, colonies were scored after 14 day incubation in a humidified atmosphere with 5% CO2 and lowered (5%) O2 tension. Cell cycling status of progenitors was measured using a high specific activity tritiated thymidine kill technique as previously described (Broxmeyer, H. E., et al., Exp. Hematol. (1989) 17:455–459).

[6] = test system: granulocyte macrophage (CFU-GM), erythroid (BFU-E), and multipotential (CFU-GEMM) progenitor cells
Protocol: (§1) Five healthy human volunteers having initial white blood cell counts of 4,500–7,500 cells/mm^3 were used in the study. […] Blood samples were obtained via catheter prior to the dose, and at various times up to 24 hours after dosing.
(§2) All progenitor cell results are based on the scoring of 3 culture plates per assay per point.
(§3) For the progenitor cell numbers and cycling status, the numbers of CFU-GM, BFU-E and CFU-GEMM in methylcellulose cultures by stimulation of the cells with 1 Unit (U)/ml recombinant human (rhu) erythropoietin, 100 U/ml rhu granulocyte-macrophage colony stimulating factor (GM-CSF), 100 U/ml rhu interleukin-3 (IL-3) and 50 ng/ml rhu steel factor (SLF=stem cell factor (SCF)). The CFU-GM were also evaluated in agar cultures stimulated with 100 U/ml rhu GM-CSF and 50 ng/ml rhu SLF. For both types of assays, colonies were scored after 14 day incubation in a humidified atmosphere with 5% CO2 and lowered (5%) O2 tension. Cell cycling status of progenitors was measured using a high specific activity tritiated thymidine kill technique as previously described (Broxmeyer, H. E., et al., Exp. Hematol. (1989) 17:455–459).

[7] = test system: CFU-GM; conditions: 80 μg/kg s.c.
Protocol: as §1, §2, §3

[8] = test system: WBC; conditions: single dose of 80 μg/kg; Phase 1 study (Liles, et al.); cited from earlier work
[9] = molecular target: CXCR4 chemokine receptor (Homo sapiens, UniProt P61073); conditions: Gerlach, et al., J.Biol. Chem. (2001); cited from earlier work
CXCR4 chemokine receptor, sequence (P61073 whole entry): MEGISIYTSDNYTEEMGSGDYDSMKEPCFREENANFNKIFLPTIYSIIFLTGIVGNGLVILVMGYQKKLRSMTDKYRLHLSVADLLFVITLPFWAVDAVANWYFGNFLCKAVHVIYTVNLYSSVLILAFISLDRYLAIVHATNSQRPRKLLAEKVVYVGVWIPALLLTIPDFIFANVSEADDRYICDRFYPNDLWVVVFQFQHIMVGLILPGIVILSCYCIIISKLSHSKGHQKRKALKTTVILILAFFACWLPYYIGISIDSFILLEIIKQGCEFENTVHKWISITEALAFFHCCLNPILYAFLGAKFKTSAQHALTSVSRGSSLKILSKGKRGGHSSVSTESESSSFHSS

Compound: c1cc(CN2CCCNCCNCCCNCC2)ccc1CN1CCCNCCNCCCNCC1 [AMD3100, 1,1′-[1,4-phenylene-bis(methylene)]-bis-1,4,8,11-tetraazacyclotetradecane]
- peak increase in circulating CD34+ progenitor/stem cells [1]: 6 fold
- mobilization of progenitor cells in combination with mu MIP-1α [2]: additive to greater than additive
- cardiac remodeling and scar formation [3]: block to cardiac remodeling and scar formation
- mobilization of bone marrow stem cells [3]: mobilizes bone marrow stem cells rapidly
- regeneration of myocardium [3]: regeneration of the dead myocardium
- PBL-LD nucleated cellularity Fold Change Compared to TIME = 0, MEAN [4]: 2.86 fold
- PBL-US nucleated cellularity Fold Change Compared to TIME = 0, MEAN [4]: 2.80 fold
- cycling state of progenitors [5]: slow or non-cycling state
- CFU-GEMM methylcellulose culture fold change from T=0 ([6]; P1, T = 1 h, 80 μg/kg s.c.): 2.07 fold
- CFU-GEMM methylcellulose culture fold change from T=0 ([6]; P1, T = 24 h, 80 μg/kg s.c.): 1.12 fold
- CFU-GM methylcellulose culture fold change from T=0 ([6]; P1, T = 24 h, 80 μg/kg s.c.): 1.10 fold
- BFU-E methylcellulose culture fold change from T=0 ([6]; P2, T = 1 h, 80 μg/kg s.c.): 1.48 fold
- BFU-E methylcellulose culture fold change from T=0 ([6]; P3, T = 1 h, 80 μg/kg s.c.): 2.30 fold
- CFU-GM methylcellulose culture fold change from T=0 ([6]; P3, T = 1 h, 80 μg/kg s.c.): 3.70 fold
- CFU-GEMM methylcellulose culture fold change from T=0 ([6]; P3, T = 9 h, 80 μg/kg s.c.): 2.47 fold
- CFU-GEMM methylcellulose culture fold change from T=0 ([6]; P3, T = 24 h, 80 μg/kg s.c.): 0.69 fold
- BFU-E methylcellulose culture fold change from T=0 ([6]; P4, T = 3 h, 80 μg/kg s.c.): 2.60 fold
- CFU-GEMM methylcellulose culture fold change from T=0 ([6]; P4, T = 6 h, 80 μg/kg s.c.): 9.10 fold
- BFU-E methylcellulose culture fold change from T=0 ([6]; P4, T = 24 h, 80 μg/kg s.c.): 0.79 fold
- CFU-GEMM methylcellulose culture fold change from T=0 ([6]; P4, T = 24 h, 80 μg/kg s.c.): 0.98 fold
- CFU-GEMM methylcellulose culture fold change from T=0 ([6]; P5, T = 3 h, 80 μg/kg s.c.): 4.43 fold
- CFU-GM methylcellulose culture fold change from T=0 ([6]; P5, T = 3 h, 80 μg/kg s.c.): 8.40 fold
- BFU-E methylcellulose culture % CHG ([6]; T = 1 h, mean of five donors, 80 μg/kg s.c.): 98.9%
- time of maximal fold increases in circulating levels of progenitor cells ([6]; after injection, all five donors): 6 h
- CFU-GM agar culture fold change from T=0 ([7]; P4, T = 24 h): 1.30 fold
- CFU-GM agar culture fold change from T=0 ([7]; P5, T = 3 h): 6.40 fold
- CFU-GM agar culture fold change from T=0 ([7]; P5, T = 24 h): 2.20 fold
- WBC count [8]: 17,000 / μl
- action at the CXCR4 chemokine receptor [9]: antagonist
